Results taken from the CATMoS acute toxicity set (Mansouri et al. 2021).

Experiment: GHS categories as the set defines them, by LD50: 1 up to 5, 2 up to 50, 3 up to 300, 4 up to 2000, 5 above 2000 mg/kg
Settings: rat; in vivo; po

Row | Structure (SMILES) | GHS category
1 | O=[N+]([O-])c1ccc(C(O)C(CO)N=Cc2ccc(N(CCCl)CCCl)cc2)cc1 (configuration not stated) | 5
2 | NS(=O)(=O)c1ccc(N2CCCCS2(=O)=O)cc1 | 5
3 | CCCCCCOC(=O)CCC | 5
4 | O=C(O)C(=O)C(O)C(O)C(O)CO (configuration not stated) | 5
5 | NC(=O)N=NC(N)=O | 5
6 | NC(=O)c1cc[n+](CC2=C(C(=O)O)N3C(=O)[C@@H](NC(=O)[C@H](c4ccccc4)S(=O)(=O)[O-])[C@@H]3SC2)cc1 | 5
7 | C=CC(C)(O)CC/C=C(\C)CC/C=C(\C)CCC=C(C)C (configuration not stated) | 5
8 | CCCCCCCCNC(=O)c1cnc2cccc(C)n2c1=O | 3
9 | C[C@@H](O)[C@H]1C(=O)N2C(C(=O)O)=C(S[C@@H]3CN[C@H](C(=O)N(C)C)C3)[C@H](C)[C@H]12 | 5
10 | CC1(C)C=C(n2ccccc2=O)c2cc(C#N)ccc2C1=O | 3
11 | COc1ccc(C(=O)CC(=O)c2ccc(C(C)(C)C)cc2)cc1 | 5
12 | CCCCCCCCCCCCCCCCCC#N | 5
13 | CN1C(=O)C(C)(C)Oc2cc(C(=O)c3ccc(Cl)cc3)ccc21 | 5
14 | CCCCCCCCCCCCCCCCCOS(=O)(=O)O | 4
15 | CCCCCCCCCCCCCCCC(=O)OC(C)C | 5
16 | CC/C=C\CCOC(=O)C(C)C | 5
17 | COCCOC=C1OC2=C(C(=O)N1c1ccccn1)N(C)S(=O)(=O)c1cc(Cl)sc12 | 2
18 | c1ccc2oc(C3(Cn4ccnc4)OCCO3)cc2c1 | 4
19 | O=P(O)(O)CN(CP(=O)(O)O)CP(=O)(O)O | 5
20 | CCCC(=NOCC(C)Oc1ccc(Cl)cc1)C1=C(O)CC(C2CCCSC2)CC1=O (configuration not stated) | 5
21 | NC(=O)[C@@H]1CCCN1C(=O)[C@H](Cc1cnc[nH]1)NC(=O)[C@@H]1CCC(=O)N1 | 5
22 | CC(C)(c1cc(Br)c(OCC(Br)CBr)c(Br)c1)c1cc(Br)c(OCC(Br)CBr)c(Br)c1 (configuration not stated) | 5
23 | CCC(C)(Oc1ccc(Cl)cc1)C(=O)OC1CC(C)CC(C)(C)C1 (configuration not stated) | 5
24 | CCc1oc2ccccc2c1C(=O)c1ccc(O)cc1 | 5

Row | Structure (SMILES) | GHS category
25 | C=CC(=O)OCCCOCC(C)(C)COCCCOC(=O)C=C | 5
26 | CCCCCCC(C)O (configuration not stated) | 5
27 | COc1cc(OC)nc(NC(=O)NS(=O)(=O)c2c(-c3nnn(C)n3)cnn2C)n1 | 5
28 | CC(=O)[C@@]1(O)CC[C@H]2[C@@H]3C=C(Cl)C4=CC(=O)CC[C@]4(C)[C@H]3CC[C@@]21C | 5
29 | C[C@@H]1C[C@@H](O)CC(C)(C)C1=O | 5
30 | O=C1OCC[C@@H]1O | 5
31 | COC(=O)Cc1c(C(=O)OC)sc(N)c1C#N | 5
32 | CC12CCCC(O)(C1)C1CC(C)(C)C1CC2 (configuration not stated) | 5
33 | CC(C)OC(=O)CCC/C=C\C[C@@H]1[C@@H](CC[C@@H](O)CCc2ccccc2)[C@H](O)C[C@@H]1O | 1
34 | Nc1ccc(C(=O)c2ccc(Cl)cc2)cc1O | 5
35 | CCC(=O)OC(C)(C)C1CC=C(C)CC1 (configuration not stated) | 5
36 | CCCCCCCCCCCCCCCCCC(=O)OCCO | 5
37 | CCOC(=O)/C(Cl)=C/c1cc(N2C(=O)C3=C(CCCC3)C2=O)ccc1Cl | 5
38 | CCCCC1COCC(C)C1OC(C)=O (configuration not stated) | 5
39 | CCC(=O)OCC(=O)OC(C)C1CCCC(C)(C)C1 (configuration not stated) | 5
40 | CC1=CC(=O)N(Cc2cccc(CN3C(=O)C=C(C)C3=O)c2)C1=O | 5
41 | O=C(c1ccccc1)C1CCCCC1 | 5
42 | CC1CN(S(=O)(=O)c2cccc3cnccc23)CCN1 (configuration not stated) | 4
43 | CCC[C@H](N[C@@H](C)C(=O)N1[C@H](C(=O)O)C[C@@H]2CCCC[C@@H]21)C(=O)OCC | 5
44 | CCC(C)=NO[Si](ON=C(C)CC)(ON=C(C)CC)c1ccccc1 | 5
45 | Clc1ccc(Cl)nn1 | 3
46 | NC1CCN(c2nc3c(cc2F)c(=O)c(C(=O)O)cn3-c2ccc(F)cc2F)C1 (configuration not stated) | 5
47 | CCCCCCCCCCCCCCCCCC | 5
